How the values were obtained:
[1] = tested on: STKM cells; assay: TUNEL assay; assay type: cell-based; details: 2 ml of BA of 2.5 mg/ml, 48 hrs, FIG. 7
Source text: (§1) The DNA Laddering assay, the TUNEL assay and the Caspase assay as described in the examples below are general methods for determining whether a cell arrives at death through an apoptosis route or not. For the DNA Laddering assay, see Shin Apoptosis Jikken-ho (edited by K. Tsujimoto, S. Tone, T. Yamada, 59-66, Yodosya, 1999). For the TUNEL assay, see Shin Apoptosis Jikken-ho (edited by K. Tsujimoto, S. Tone, T. Yamada, 67-74, Yodosya, 1999). For the Caspase assay, see Shin Apoptosis Jikken-ho (edited by K. Tsujimoto, S. Tone, T. Yamada, 198-200, Yodosya, 1999).
(§2) For a cell group capable of being guided to the cell mortality, it was determined that through which route, apoptosis or necrosis, the cell arrived at death. Namely, BA was added to the cell at a certain concentration or more necessary to guide to the cell mortality, and the cell was collected after confirmation of the change in shape. Then, the DNA Laddering assay with gel electrophoresis to investigate the DNA fragmentation and the TUNEL assay with the cell dyeing were carried out.
2 ml of BA of 2.5 mg/ml was added to 1.5×10^5 cells (STKM) on a slide glass, followed by incubating at 37° C. for 48 hrs and fixing with 1% paraformaldehyde in PBS at a room temperature for 10 min. For a control, the equal amount of physiological saline was added. […]

[2] = tested on: Staphylococcus aureus; details: on Staphylococcus aureus; cited from earlier work
[3] = tested on: stomach cancer cell line (STKM) tumor; assay: antitumor effect on STKM tumor in nude mouse in vivo
Protocol: 1×10^8 cells of a stomach cancer cell line (STKM) were subcutaneously injected in the back of a nude mouse. When a tumor grew to have a diameter of 5 mm or more after 8 weeks, BA was administrated to the tumor or around the tumor by 4 mg/0.5 ml twice a week for 4 weeks. For a control, 0.5 ml of physiological saline was locally injected to the tumor. The tumor diameter was measured. The tumor tissue was taken out and subjected to the H-E dyeing to observe with a microscope.
A stomach cancer cell line (STKM) was implanted in a living body. When a tumor grew to have a diameter of 5 mm or more, BA was administrated by 4 mg/0.5 ml twice a week for 4 weeks. […] The tumor diameter decreased to the ½ or less after the 32 mg administration (4 weeks).
FIGS. 4 and 5 show the images obtained by extracting the tumor after 4 weeks of administration, fixing with 10% formalin, slicing to 3 μm pieces and H-E dyeing. […] The above result confirms that the stomach cancer cell arrived at death in vivo.

[4] = tested on: STKM (a stomach cancer cell line); assay: DNA Laddering assay; assay type: cell-based; details: 2 ml of BA of 2.5 mg/ml, 48 hrs, FIG. 6
Source text: as §1, §2
2 ml of BA of 2.5 mg/ml was added to 1.5×10^6 cells (STKM) followed by incubating at 37° C. for 48 hrs to collect the cells. The collected cells were centrifuged and added in 100 μl of lysis buffer (10 mM EDTA, 50 mM Tris-HCl, pH 8.0, 0.5% SDS, 0.5 mg/ml Proteinase K), followed by incubating at […] for 3 hrs. […]

[5] = tested on: Escherichia coli; details: on Escherichia coli; cited from earlier work
[6] = tested on: Sarmonella typhii; details: on Sarmonella typhii; cited from earlier work
[7] = tested on: stomach cancer cell line (STKM); assay: cell adhesiveness test by the calorimetric assay; assay type: cell-based; details: 37° C. for 48 hrs, OD 600 nm, FIG. 1
Source text: The calorimetric assay as described in the examples below can be employed for assaying the adhesiveness of a cell, and the thymidine incorporate assay can be employed for assaying the mortality of a cell. These two assays are general methods for determining the behavior of a tumor cell. For the colorimetric assay, see Enhancer sequences of DF3 gene regulate expression of the herpes simplex virus thymidine kinase gene and confer sensitivity of human breast cancer cell to ganciclovir: Manome Y, Abe M, Hagen F. M, Fine A. H, and Kufe W. D, Cancer Research 54:5408-5413, 1994. For the thymidine incorporate assay, see Meneki Jikken Sousa-ho II (edited by S. Uda, S. Konda, Y. Honsho, T, Hamaoka, 773-774, Nanko-do, 1995).
(§3) To 1×10^6 cells of a stomach cancer cell line (STKM), BA was added by such proportional concentrations as 1, 1.5, 2.0, 2.5 and 5 mg/ml. An equal amount of the physiological saline was added to prepare a control sample. All the samples were incubated at 37° C. for 48 hrs. The shape of the cell was studied through an inverted microscope. The adhesiveness and the mortality of the cell were measured by the calorimetric assay and the thymidine incorporate assay.
(1) The Cell Adhesiveness Test by the Calorimetric Assay:
100% gulutalaldehyde was added to each of samples by a ¼ the medium amount (250 μl), then left to stand at a room temperature for 15 min. […]

[8] = tested on: Caspase-8; assay: Caspase-8 activity assay; assay type: cell-based; details: 2 ml of BA of 2.5 mg/ml, 48 hrs
Source text: as §1
(§4) To 1.5×10^6 cells, 2 ml of BA of 2.5 mg/ml for a test sample, the equal amount of physiological saline for a negative control sample, and Arac 1×10^−5M (Kirosaito, Nippon Shinyaku) for a positive control sample were added respectively, each of which was followed by incubating at 37° C. for 48 hrs to recover the cells. Then, the CPP32/Caspase-3, -8 Colorimetric Protease Assay kit (MBL Co.) was applied to the samples. The application was briefly as follows: • 1. […]

[9] = tested on: large bowel cancer cell line LOVO; assay: tests as in Examples 1, 2 and 3; assay type: cell-based
Protocol: (§5) The tests were carried out on a breast cancer cell line (MCF-7, BSMZ), a large bowel cancer cell line (DLD, LOVO), a thyroid gland cancer cell line (SW1736), and a pancreas cancer cell line (PA-1) in the same ways as in Examples 1, 2, and 3. As the result, the cell mortality began with about 1.5 mg/ml of BA to increase in proportion to the BA concentration, same as adhesiveness thereof.

[10] = tested on: thyroid gland cancer cell line SW1736; assay: tests as in Examples 1, 2 and 3; assay type: cell-based
Protocol: as §5

[11] = tested on: large bowel cancer cell line DLD; assay: tests as in Examples 1, 2 and 3; assay type: cell-based
Protocol: as §5

[12] = tested on: breast cancer cell line MCF-7; assay: tests as in Examples 1, 2 and 3; assay type: cell-based
Protocol: as §5

[13] = tested on: breast cancer cell line BSMZ; assay: tests as in Examples 1, 2 and 3; assay type: cell-based
Protocol: as §5

[14] = tested on: pancreas cancer cell line PA-1; assay: tests as in Examples 1, 2 and 3; assay type: cell-based
Protocol: as §5

[15] = in body; cited from earlier work
[16] = tested on: stomach cancer cell line (STKM); assay: cell shape by inverted microscope in vitro; assay type: cell-based; details: BA 2.5 mg/ml, 37° C. for 48 hrs, FIG. 3
Protocol: as §3
One ml of BA of 2.5 mg/ml was added to 1×10^6 cells followed by incubating at 37° C. for 48 hrs to get the image as shown in FIG. 3. The equal amount of physiological saline was similarly added, followed by incubating in the same way to get the control. […] The nucleus also got remarkably blackened. The above result confirms that a stomach cancer cell arrived at death in vitro.

[17] = tested on: lung cell line (WI38); assay: colorimetric assay on a normal cell; assay type: cell-based; details: FIG. 10
Protocol: (§6) 100% gulutalaldehyde was added to each of samples by a ¼ the medium amount (250 μl), then left to stand at a room temperature for 15 min. After washing, 250 μl of 0.05% Methylene Blue in PBS was added and then left to stand at a room temperature for 15 min. After washing, 250 μl of 0.33N HCl was added, followed by leaving to stand at a room temperature for 15 min and measuring the OD (600 nm).
(§7) In order to confirm that the BA administration effects specifically a cancer cell to arrive at death, the colorimetric assay was carried out on a normal cell, that is, an umbilical cord cell line (Huvec) and a lung cell line (WI38), in the same way as in Example 1. The stomach cancer cell line (STKM) was used for a control.

[18] = tested on: umbilical cord cell line (Huvec); assay: colorimetric assay on a normal cell; assay type: cell-based; details: FIG. 10
Protocol: as §6, §7

[19] = tested on: Caspase-3; assay: Caspase-3 activity assay; assay type: cell-based; details: 2 ml of BA of 2.5 mg/ml
Source text: as §1, §4

## OCc1ccccc1 [BA, Benzyl alcohol]
[1]
  Digoxigenin dyeing in the nucleus (TUNEL): no Digoxigenin dyeing image in the nucleus
[2]
  phenol coefficient: 0.5
[3]; nude mouse, 4 mg/0.5 ml twice a week to or around the tumor, 16 mg administration (2 weeks)
  tumor diameter compared with the control: contracted in diameter compared with the control
[3]; nude mouse, 4 mg/0.5 ml twice a week to or around the tumor, after the 32 mg administration (4 weeks)
  tumor diameter decrease: ½
[3]; tumor extracted after 4 weeks of administration, FIG. 5
  H-E dyed tumor tissue image: cells were scattered sparsely with the swollen cytoplasm, appearance of the inclusion bodies and contraction of the nucleus
[4]
  DNA laddering: No laddering was recognized
[5]
  phenol coefficient: 0.6
[6]
  phenol coefficient: 0.4
[7]
  BA concentration at which cell adhesiveness begins to decrease: about 1.5 mg/ml
[8]; FIG. 9
  Caspase-8 activity compared with positive control (Arac): significantly lower than that of the positive control
[8]; FIGS. 8, 9
  Caspase activity compared with negative control (physiological saline): almost equal to that of the negative control
[9]
  BA concentration at which cell mortality begins to increase (same as adhesiveness): about 1.5 mg/ml
  route of cell death: did not arrive at death through an apoptosis route, but through a necrosis one
[10]
  BA concentration at which cell mortality begins to increase (same as adhesiveness): about 1.5 mg/ml
  route of cell death: did not arrive at death through an apoptosis route, but through a necrosis one
[11]
  BA concentration at which cell mortality begins to increase (same as adhesiveness): about 1.5 mg/ml
  route of cell death: did not arrive at death through an apoptosis route, but through a necrosis one
[12]
  BA concentration at which cell mortality begins to increase (same as adhesiveness): about 1.5 mg/ml
  route of cell death: did not arrive at death through an apoptosis route, but through a necrosis one
[13]
  BA concentration at which cell mortality begins to increase (same as adhesiveness): about 1.5 mg/ml
  route of cell death: did not arrive at death through an apoptosis route, but through a necrosis one
[14]
  BA concentration at which cell mortality begins to increase (same as adhesiveness): about 1.5 mg/ml
  route of cell death: did not arrive at death through an apoptosis route, but through a necrosis one
[15]
  metabolism and excretion: converted to benzoic acid in body and excreted as hippuric acid
[16]
  cell shape: cell shape changed from a spindle to a circle and got swollen
[17]
  resistance to BA compared with Huvec: more resistant to BA than the Huvec
[17]; colorimetric assay
  cell death effect compared to STKM: lower effect compared to the STKM
[18]
  cell death effect compared to STKM: lower effect compared to the STKM
[19]; 37° C. for 48 hrs, FIG. 8
  Caspase-3 activity: 45.4 RFI/well/Hr
[19]; 48 hrs, p<0.001
  Caspase-3 activity compared with positive control (Arac): significantly lower than that of the positive control
